# Data taken from patent US20260215425A1, “NITRIFICATION INHIBITORS” (The University of Melbourne, priority 2022, published 2026).
# Experiments:
# [1] = test system: N. europaea; assay: standard nitrification inhibition assay (NO2- production, Griess); format: cell-based, Nitrosomonas europaea; settings: [NH4+]=3 mM, [inhibitor]=0.3 mM (10 mol %), pH 7.5, 30° C., 60 min
# Description: (§1) Cells of N. multiformis and N. europaea were cultivated to the mid-exponential growth phase (OD600=0.1, [NO2^−] approximately 800 μM) and harvested by filtration onto 0.2 μm membrane filters (Mixed Cellulose Ester (MCE), Sigma Aldrich). The cells were washed with 2×100 mL of 0.1 M sodium phosphate buffer (NaPB), containing 0.2 mM MgSO4 at pH 7.5. The cells were washed from the filter paper by transferring it to a sterile 50 mL tube and resuspending in NaPB (15 mL), followed by 5 s of vortexing (Ratek, Australia) and 3 s of sonication (Vevor, Australia). […] Experiments were performed in triplicate.
# (§2) In a deep 96-well plate (2 mL capacity), 980 μL of the bacterial inoculum (OD600=0.03) was added to the inhibitor (10 μL, 30 mmol L^−1 in Milli-Q water), the solutions were mixed thoroughly and pre-incubated in the dark for 5 minutes at 100 rpm and 30° C. (NH4)2SO4 (10 μL, 150 mM, from a prepared sterile solution containing 19.8 g L^−1 (NH4)2SO4 in Milli-Q water) was then added using a multi-channel pipette. The plate was covered with a with an O2 permeable membrane to ensure aeration (Breathe-Easy® sealing membrane, Sigma Aldrich) and incubated in a temperature-regulated rotary incubator (Ratek, Australia) in the dark for 60 minutes at 30° C. and 100 rpm. An aliquot of the reaction solution ([…]) was transferred to a 96-well spectrophotometric plate to which 50 µL of Griess reagent was added. The colour was allowed to develop for 15 minutes at room temperature, and the absorbance was measured at 540 nm. Each assay was accompanied by control treatments to determine the 0% and 100% NO2 signal. The percentage inhibition was calculated according to eqn. 1 from the NO2 production of the cells in NaPB (i) without additive (‘untreated cells’: 0% signal), (ii) with [NH4^+]=3 mM (‘uninhibited’ cells: 100% signal) and (iii) with [NH4^+]=3 mM and [inhibitor]=0.3 mM and 0.03 mM (10 mol % and 1 mol % of [NH4^+], ‘inhibited cells’). Experiments were performed in triplicate.
# [2] = test system: N. multiformis; assay: as above; format: cell-based, Nitrosospira multiformis; settings: [NH4+]=3 mM, [inhibitor]=0.3 mM (10 mol %), pH 7.5, 30° C., 60 min
# Description: as §1, §2
# [3] = test system: soils B-E; assay: soil incubation, N2O production in soils B-E
# Description: Soil incubations were performed in three replicates. Each sample consisted of 6 g of sieved soil (2 mm). The soil was air-dried after collection and pre-incubated prior to the experiment for seven days at 50% water holding capacity (WHC). The soil was transferred to a gas chromatography vial (22 mL volume, clear glass, Macherey-Nagel, Germany) and compacted densely to allow 5.5-6.2 cm headspace. The soil in the vials was incubated for a total of 21 days at a constant temperature of 21° C. with an open lid to ensure gas circulation. The control incubations contained ‘untreated’ soil (deionized H2O only) and ‘fertiliser only’ soil ((NH4)2SO4; 50 mg kg^−1 soil) and accompanied each measurement. (NH4)2SO4 was applied as an aqueous solution ([…]) and introduced on the soil surface to mimic field conditions. Three inhibitor solutions were prepared from DMP and 4-MPT at concentrations of 0.5 mol %, 2.5 mol % and 5 mol % of applied fertiliser-N and applied on the soil surface. The soils reached 60% WHC after the treatments had been applied and were kept at that moisture level by periodically adding deionized water to compensate for evaporation losses. At the day of measurement (day 1, 3, 5, 7, 14 and 21 after fertilization) the vials were closed gas-tight with a rubber septum and aluminium lid and opened again after each measurement. The N2O emission was analysed using a gas chromatograph equipped with an electron capture detector and flame ionization detector (GC-ECD/FID; Clarus 580, Perkin Elmer). A linear regression slope was used to calculate N2O—N production rates, F, according to eqn. 5:
# where ΔC/Δt represents the change of the N2O concentration over the time interval t in ppbv, V represents the headspace volume in L, M represents the molar mass of N in N2O, m represents the amount of soil in g dry weight, Vm represents the molar volume of ideal gases (22.414 L mol^−1) at 0° C. and 101.325 kPa, corrected for the gas sampler using T0 (273.15 K) and Ta (air temperature in K).
smiles,measurement,setting,value
C#CCOC(=O)Cn1cc(CCC)nn1 [Compound 3],% Inhibition NE,[1],49 ± 2%
same,% Inhibition NM,[2],47 ± 2%
"Cc1c[nH]nc1C [DMP, 3,4-dimethylpyrazole, reference compound]",N2O production,"[3]; Soil B, 0.5 mol %, Day 1",0.318 ± 0.030 μg g^−1 soil h^−1
same,N2O production,"[3]; Soil B, 0.5 mol %, Day 3",0.189 ± 0.006 μg g^−1 soil h^−1
same,N2O production,"[3]; Soil B, 0.5 mol %, Day 5",0.151 ± 0.015 μg g^−1 soil h^−1
same,N2O production,"[3]; Soil B, 0.5 mol %, Day 7",0.086 ± 0.043 μg g^−1 soil h^−1
same,N2O production,"[3]; Soil B, 0.5 mol %, Day 14",0.136 ± 0.006 μg g^−1 soil h^−1
same,N2O production,"[3]; Soil B, 0.5 mol %, Day 21",0.019 ± 0.019 μg g^−1 soil h^−1
same,N2O production,"[3]; Soil B, 2.5 mol %, Day 1",0.224 ± 0.013 μg g^−1 soil h^−1
same,N2O production,"[3]; Soil B, 2.5 mol %, Day 3",0.124 ± 0.008 μg g^−1 soil h^−1
same,N2O production,"[3]; Soil B, 2.5 mol %, Day 5",0.060 ± 0.030 μg g^−1 soil h^−1
same,N2O production,"[3]; Soil B, 2.5 mol %, Day 7",0.045 ± 0.023 μg g^−1 soil h^−1
same,N2O production,"[3]; Soil B, 2.5 mol %, Day 14",0.113 ± 0.006 μg g^−1 soil h^−1
same,N2O production,"[3]; Soil B, 2.5 mol %, Day 21",0.127 ± 0.000 μg g^−1 soil h^−1
same,N2O production,"[3]; Soil B, 5 mol %, Day 1",0.209 ± 0.054 μg g^−1 soil h^−1
same,N2O production,"[3]; Soil B, 5 mol %, Day 3",0.067 ± 0.017 μg g^−1 soil h^−1
same,N2O production,"[3]; Soil B, 5 mol %, Day 5",0.058 ± 0.014 μg g^−1 soil h^−1
same,N2O production,"[3]; Soil B, 5 mol %, Day 7",0.020 ± 0.010 μg g^−1 soil h^−1
same,N2O production,"[3]; Soil B, 5 mol %, Day 14",0.052 ± 0.003 μg g^−1 soil h^−1
same,N2O production,"[3]; Soil B, 5 mol %, Day 21",0.037 ± 0.019 μg g^−1 soil h^−1
same,N2O production,"[3]; Soil C, 0.5 mol %, Day 1",0.283 ± 0.008 μg g^−1 soil h^−1
same,N2O production,"[3]; Soil C, 0.5 mol %, Day 3",0.183 ± 0.003 μg g^−1 soil h^−1
same,N2O production,"[3]; Soil C, 0.5 mol %, Day 5",0.081 ± 0.041 μg g^−1 soil h^−1
same,N2O production,"[3]; Soil C, 0.5 mol %, Day 7",0.162 ± 0.037 μg g^−1 soil h^−1
same,N2O production,"[3]; Soil C, 0.5 mol %, Day 14",0.105 ± 0.007 μg g^−1 soil h^−1
same,N2O production,"[3]; Soil C, 0.5 mol %, Day 21",0.101 ± 0.011 μg g^−1 soil h^−1
same,N2O production,"[3]; Soil C, 2.5 mol %, Day 1",0.276 ± 0.006 μg g^−1 soil h^−1
same,N2O production,"[3]; Soil C, 2.5 mol %, Day 3",0.161 ± 0.006 μg g^−1 soil h^−1
same,N2O production,"[3]; Soil C, 2.5 mol %, Day 5",0.133 ± 0.006 μg g^−1 soil h^−1
same,N2O production,"[3]; Soil C, 2.5 mol %, Day 7",0.113 ± 0.005 μg g^−1 soil h^−1
same,N2O production,"[3]; Soil C, 2.5 mol %, Day 14",0.086 ± 0.006 μg g^−1 soil h^−1
same,N2O production,"[3]; Soil C, 2.5 mol %, Day 21",0.089 ± 0.005 μg g^−1 soil h^−1
same,N2O production,"[3]; Soil C, 5 mol %, Day 1",0.228 ± 0.017 μg g^−1 soil h^−1
same,N2O production,"[3]; Soil C, 5 mol %, Day 3",0.125 ± 0.006 μg g^−1 soil h^−1
same,N2O production,"[3]; Soil C, 5 mol %, Day 5",0.099 ± 0.008 μg g^−1 soil h^−1
same,N2O production,"[3]; Soil C, 5 mol %, Day 7",0.098 ± 0.010 μg g^−1 soil h^−1
same,N2O production,"[3]; Soil C, 5 mol %, Day 14",0.085 ± 0.009 μg g^−1 soil h^−1
same,N2O production,"[3]; Soil C, 5 mol %, Day 21",0.095 ± 0.000 μg g^−1 soil h^−1
same,N2O production,"[3]; Soil D, 0.5 mol %, Day 1",0.131 ± 0.001 μg g^−1 soil h^−1
same,N2O production,"[3]; Soil D, 0.5 mol %, Day 3",0.133 ± 0.003 μg g^−1 soil h^−1
same,N2O production,"[3]; Soil D, 0.5 mol %, Day 5",0.063 ± 0.003 μg g^−1 soil h^−1
same,N2O production,"[3]; Soil D, 0.5 mol %, Day 7",0.112 ± 0.008 μg g^−1 soil h^−1
same,N2O production,"[3]; Soil D, 0.5 mol %, Day 14",0.072 ± 0.009 μg g^−1 soil h^−1
same,N2O production,"[3]; Soil D, 0.5 mol %, Day 21",0.098 ± 0.011 μg g^−1 soil h^−1
same,N2O production,"[3]; Soil D, 2.5 mol %, Day 1",0.073 ± 0.037 μg g^−1 soil h^−1
same,N2O production,"[3]; Soil D, 2.5 mol %, Day 3",0.120 ± 0.005 μg g^−1 soil h^−1
same,N2O production,"[3]; Soil D, 2.5 mol %, Day 5",0.067 ± 0.006 μg g^−1 soil h^−1
same,N2O production,"[3]; Soil D, 2.5 mol %, Day 7",0.115 ± 0.012 μg g^−1 soil h^−1
same,N2O production,"[3]; Soil D, 2.5 mol %, Day 14",0.070 ± 0.006 μg g^−1 soil h^−1
same,N2O production,"[3]; Soil D, 2.5 mol %, Day 21",0.063 ± 0.003 μg g^−1 soil h^−1
same,N2O production,"[3]; Soil D, 5 mol %, Day 1",0.114 ± 0.015 μg g^−1 soil h^−1
same,N2O production,"[3]; Soil D, 5 mol %, Day 3",0.112 ± 0.006 μg g^−1 soil h^−1
same,N2O production,"[3]; Soil D, 5 mol %, Day 5",0.039 ± 0.021 μg g^−1 soil h^−1
same,N2O production,"[3]; Soil D, 5 mol %, Day 7",0.102 ± 0.014 μg g^−1 soil h^−1
same,N2O production,"[3]; Soil D, 5 mol %, Day 14",0.056 ± 0.004 μg g^−1 soil h^−1
same,N2O production,"[3]; Soil D, 5 mol %, Day 21",0.069 ± 0.007 μg g^−1 soil h^−1
same,N2O production,"[3]; Soil E, 0.5 mol %, Day 1",0.053 ± 0.002 μg g^−1 soil h^−1
same,N2O production,"[3]; Soil E, 0.5 mol %, Day 3",0.037 ± 0.006 μg g^−1 soil h^−1
same,N2O production,"[3]; Soil E, 0.5 mol %, Day 5",0.015 ± 0.008 μg g^−1 soil h^−1
same,N2O production,"[3]; Soil E, 0.5 mol %, Day 7",0.000 ± 0.000 μg g^−1 soil h^−1
same,N2O production,"[3]; Soil E, 0.5 mol %, Day 14",0.000 ± 0.000 μg g^−1 soil h^−1
same,N2O production,"[3]; Soil E, 0.5 mol %, Day 21",0.000 ± 0.000 μg g^−1 soil h^−1
same,N2O production,"[3]; Soil E, 2.5 mol %, Day 1",0.080 ± 0.009 μg g^−1 soil h^−1
same,N2O production,"[3]; Soil E, 2.5 mol %, Day 3",0.014 ± 0.014 μg g^−1 soil h^−1
same,N2O production,"[3]; Soil E, 2.5 mol %, Day 5",0.000 ± 0.000 μg g^−1 soil h^−1
same,N2O production,"[3]; Soil E, 2.5 mol %, Day 7",0.000 ± 0.000 μg g^−1 soil h^−1
same,N2O production,"[3]; Soil E, 2.5 mol %, Day 14",0.008 ± 0.008 μg g^−1 soil h^−1
same,N2O production,"[3]; Soil E, 2.5 mol %, Day 21",0.000 ± 0.000 μg g^−1 soil h^−1
same,N2O production,"[3]; Soil E, 5 mol %, Day 1",0.045 ± 0.011 μg g^−1 soil h^−1
same,N2O production,"[3]; Soil E, 5 mol %, Day 3",0.011 ± 0.011 μg g^−1 soil h^−1
same,N2O production,"[3]; Soil E, 5 mol %, Day 5",0.000 ± 0.000 μg g^−1 soil h^−1
same,N2O production,"[3]; Soil E, 5 mol %, Day 7",0.000 ± 0.000 μg g^−1 soil h^−1
same,N2O production,"[3]; Soil E, 5 mol %, Day 14",0.007 ± 0.007 μg g^−1 soil h^−1
same,N2O production,"[3]; Soil E, 5 mol %, Day 21",0.000 ± 0.000 μg g^−1 soil h^−1
same,N2O production rate,"[3]; soil B, 0.5 mol % (lowest application rate), day 1",0.32 ng g^−1 soil h^−1
same,N2O production rate relative to the uninhibited soil,"[3]; soil B, 0.5 mol %, day 1",approximately 50%
same,N2O production rate relative to that in the absence of the inhibitor,"[3]; soil B, 2.5 mol %",approximately 67%
same,N2O production rate relative to that in the absence of the inhibitor,"[3]; soil B, 5 mol %",approximately 67%
same,N2O formation rate compared to the uninhibited soil,"[3]; soil C, 0.5 mol % and 2.5 mol %, first two weeks (P>0.05)",did not show a significantly reduced N2O formation rate
same,N2O production rate,"[3]; soil C, highest application rate (5 mol %), day 21",0.095 ng g^−1 soil h^−1
same,N2O production rates compared to the uninhibited soil,[3]; soil D (P>0.05),No significant difference
same,N2O production beyond day 5,"[3]; soil E, 5 mol %",no N2O production was detected
